The record followed here is ChEMBL document CHEMBL4043279 (Bioorg Med Chem Lett, 2017).

For experiment [1], the system named is THP-1. Description: Antiproliferative activity against human THP1 cells treated for 24 hrs measured after 72 hrs by MTT assay. It counts as functional, cell-based. For orientation: Tetrazolium dyes change colour on reduction, which living cells bring about.
Experiment [2] relates to PBMC. Description: Antiproliferative activity against human PBMC treated for 24 hrs measured after 72 hrs by MTT assay. It counts as cell-based.
Experiment [3] deals with PC-3. As to the kind of experiment: Antiproliferative activity against human PC3 cells treated for 24 hrs measured after 72 hrs by MTT assay. It counts as functional, cell-based.
The test system of experiment [4] is HepG2. Description: Antiproliferative activity against human HepG2 cells treated for 24 hrs measured after 72 hrs by MTT assay. Format: functional, cell-based.
In experiment [5] the test system is HL-60. Description: Antiproliferative activity against human HL60 cells treated for 24 hrs measured after 72 hrs by MTT assay. Format: functional, cell-based.

As a reminder, the IC50 is the concentration needed to halve the response being measured. Low readings indicate inhibition by little substance, high ones a need for much substance.

As to `CN1c2ccccc2C(=O)N2CCc3c(n(CCCOCCCOC(=O)c4ccc(N(CCCl)CCCl)cc4)c4ccccc34)C21` (stereo not drawn), the IC50 in experiment [1] was 9.29 µM; in experiment [2], over 200 µM; in experiment [3] it was over 100 µM; in experiment [4], over 100 µM; in experiment [5], 22.3 µM.
As to `O=c1[nH]cc(F)c(=O)[nH]1` [FLUOROURACIL], the half-inhibitory concentration (IC50) in experiment [1] was found to be 4.87 µM; in experiment [3], 23.9 µM; in experiment [5] it was 3.69 µM.
`COC(=O)[C@H](Cc1ccc(N(CCCl)CCCl)cc1)NC(=O)CCC(=O)OCCCCCCn1c2c(c3ccccc31)CCN1C(=O)c3ccccc3N(C)C21` (stereo partly drawn): the IC50 in experiment [1] was 4.24 µM; in experiment [2] it was over 200 µM; in experiment [3], over 100 µM; in experiment [4], over 100 µM; in experiment [5], 2.84 µM.
Consider `CN1c2ccccc2C(=O)N2CCc3c(n(CCCO)c4ccccc34)C21` (stereo not drawn), for which the IC50 is 8.89 µM in experiment [1]; over 200 µM in experiment [2]; 27.3 µM in experiment [3]; over 100 µM in experiment [4]; 6.03 µM in experiment [5].
Regarding `CN1c2ccccc2C(=O)N2CCc3c(n(CCCCCCOC(=O)c4ccc(N(CCCl)CCCl)cc4)c4ccccc34)C21` (stereo not drawn), the IC50 in experiment [1] is 3.92 µM; in experiment [2] it was over 200 µM; in experiment [3], over 100 µM; in experiment [4], over 100 µM; in experiment [5], 23.5 µM.
For the compound `CN1c2ccccc2C(=O)N2CCc3c([nH]c4ccccc34)C21` (stereo not drawn), the IC50 in experiment [1] is 3.37 µM; in experiment [2] it was 22.9 µM; in experiment [3], 14 µM; in experiment [4], 9.32 µM; in experiment [5] it was 1.39 µM.
In the case of `CN1c2ccccc2C(=O)N2CCc3c(n(CCCCCCOC(=O)CCCc4ccc(N(CCCl)CCCl)cc4)c4ccccc34)C21` (stereo not drawn), the IC50 in experiment [1] is 10.5 µM; in experiment [2], over 200 µM; in experiment [3], over 100 µM; in experiment [4], over 100 µM; in experiment [5], 17.5 µM.
On to `O=C(O)CCCc1ccc(N(CCCl)CCCl)cc1` [CHLORAMBUCIL], for which the IC50 in experiment [1] was 5.3 µM; in experiment [2], over 200 µM; in experiment [3] it was 42.1 µM; in experiment [4] it was over 100 µM; in experiment [5], 12.9 µM.
For the compound `CN1c2ccccc2C(=O)N2CCc3c(n(CCCCCCO)c4ccccc34)C21` (stereo not drawn), the IC50 in experiment [1] was 6.97 µM; in experiment [2], over 200 µM; in experiment [3], 21.5 µM; in experiment [4] it was over 100 µM; in experiment [5], 8.53 µM.
The matching figures for `COC(=O)[C@H](Cc1ccc(N(CCCl)CCCl)cc1)NC(=O)CCC(=O)OCCn1c2c(c3ccccc31)CCN1C(=O)c3ccccc3N(C)C21` (stereo partly drawn): 9.37 µM, over 200 µM, over 100 µM, over 100 µM and 3.11 µM.
`CN1c2ccccc2C(=O)N2CCc3c(n(CCO)c4ccccc34)C21` (stereo not drawn): the IC50 was 1.64 µM in experiment [1]; over 200 µM in experiment [2]; 12.3 µM in experiment [3]; over 100 µM in experiment [4]; 7.1 µM in experiment [5].
The matching figures for `CN1c2ccccc2C(=O)N2CCc3c(n(CCCOC(=O)CCCc4ccc(N(CCCl)CCCl)cc4)c4ccccc34)C21` (stereo not drawn): 5.68 µM, over 200 µM, over 100 µM, over 100 µM and 4.3 µM.
For `CN1c2ccccc2C(=O)N2CCc3c(n(CCCOCCCOC(=O)CCCc4ccc(N(CCCl)CCCl)cc4)c4ccccc34)C21` (stereo not drawn), in that order: 5.31 µM, over 200 µM, 27.6 µM, over 100 µM and 1.29 µM.
For `CN1c2ccccc2C(=O)N2CCc3c(n(CCCOCCCO)c4ccccc34)C21` (stereo not drawn), the IC50 in experiment [1] was 8.42 µM; in experiment [2], over 200 µM; in experiment [3], 19.9 µM; in experiment [4] it was over 100 µM; in experiment [5], 5.31 µM.
Turning to `COC(=O)[C@H](Cc1ccc(N(CCCl)CCCl)cc1)NC(=O)CCC(=O)O`, the IC50 was 3.84 µM in experiment [1]; over 200 µM in experiment [2]; over 100 µM in experiment [3]; 13.8 µM in experiment [4]; 5.34 µM in experiment [5].
Turning to `CN1c2ccccc2C(=O)N2CCc3c(n(CCOC(=O)CCCc4ccc(N(CCCl)CCCl)cc4)c4ccccc34)C21` (stereo not drawn), the IC50 is 4.82 µM in experiment [1]; over 200 µM in experiment [2]; 45.7 µM in experiment [3]; over 100 µM in experiment [4]; 11.3 µM in experiment [5].
In the case of `CN1c2ccccc2C(=O)N2CCc3c(n(CCOC(=O)c4ccc(N(CCCl)CCCl)cc4)c4ccccc34)C21` (stereo not drawn), the half-maximal inhibitory concentration (IC50) in experiment [1] was 33.6 µM; in experiment [2] it was over 200 µM; in experiment [3] it was over 100 µM; in experiment [4] it was over 100 µM; in experiment [5] it was 27.2 µM.
In the case of `COC(=O)[C@H](Cc1ccc(N(CCCl)CCCl)cc1)NC(=O)CCC(=O)OCCCn1c2c(c3ccccc31)CCN1C(=O)c3ccccc3N(C)C21` (stereo partly drawn), the IC50 in experiment [1] is 2.37 µM; in experiment [2], over 200 µM; in experiment [3], over 100 µM; in experiment [4] it was over 100 µM; in experiment [5], 1.12 µM.
As for `CN1c2ccccc2C(=O)N2CCc3c(n(CCCOC(=O)c4ccc(N(CCCl)CCCl)cc4)c4ccccc34)C21` (stereo not drawn), the IC50 in experiment [1] is 6.6 µM; in experiment [2] it was over 200 µM; in experiment [3] it was over 100 µM; in experiment [4], over 100 µM; in experiment [5], 30.9 µM.
